Results: patent publication US4248884A, “2-Pyrrolidine methanol derivatives utilizable as medicaments” (Pharmindustrie, priority 1978, dated 1981)
Like-named read-outs stand apart in the source and are kept apart here.

Tests used:
serum triglycerides = assay: Hypotriglyceridemiant activity: olive oil induced experimental hypertriglyceridemia in fasting rats; type: in vivo, male rats
Procedure: Journal of Pharmacology, 1973, 23, 131, the disclosure of which is incorporated herein by reference.
The rats are killed two hours after the administration of the oil by decapitation. The serum is separated by centrifuging and the triglycerides are determined on an amount of 0.2 ml of serum by extraction with a heptane-isopropanol mixture and colorimetry according to the method of Van Handel et al., J. Lab. and Clin. Med., 1957, 50, 152-157, by using an assembly of analytical reagents known commercially as "Triclycerides-kit Bio Merieux".

[1] = test system: reserpine induced hypothermia (central nervous system); assay: Action on the central nervous system: reserpine induced hypothermia in mice; type: in vivo; conditions: Mus musculus, oral, read-out: DE50 oral (dose exerting an antihypothermic effect equal to 50% of that caused by 15 mg/kg oral imipramine)
Procedure: The activity of the products on the central nervous system has been shown by the test of reserpine induced hypothermia in mice, according to the method of D. M. Asken, Life Sciences, 1963, vol. 2, p. 725, the disclosure of which is incorporated herein by reference,
The results are expressed by a DE50 or dose of product, in mg/kg, capable of exerting an antihypothermic effect equal to 50% of the antihypothermic effect caused by 15 mg/kg (oral) of imipramine.

[2] = Acute toxicity by oral administration; conditions: in vivo; male mouse CD1, oral, after three days of observation
Description: The acute toxicities of the compounds according to the invention have been determined on the male mouse CD1 (Charles River) by oral administration. The LD50 have been calculated, after three days of observation, by the cumulative method of J. J. Reed et al. (Am. J. Hyg., 1938, 27, 493), the disclosure of which is incorporated herein by reference.

[3] = Rattus norvegicus, po, read-out: % of inhibition (relative reduction of the proportion of serum triglycerides with respect to control animals)
[4] = rat, oral, 100 mg/kg, 2 h before 20 ml/kg olive oil, Student Fischer T test 0.01, read-out: % of inhibition (relative reduction of the proportion of serum triglycerides with respect to control animals)

SMILES	ED50 [1]	LD50 at 72 h [2]	other results
O[C@H](c1ccccc1)[C@@H]1CCCN1 (relative stereo) [Example 1, α-phenyl-2-pyrrolidine-methanol (erythro isomer)]	4.5 mg/kg		inhibition at 50 mg/kg (serum triglycerides; [3]): 33%
O[C@H](c1ccccc1)[C@H]1CCCN1 (relative stereo) [Example 2, α-phenyl-2-pyrrolidine methanol (threo isomer)]	> 150 mg/kg	600 mg/kg	inhibition at 6.25 mg/kg (serum triglycerides; [3]): 41%; inhibition at 50 mg/kg (serum triglycerides; [3]): 45%; hypotriglyceridemiant activity (in words) (serum triglycerides; rat, oral, Example 2 at 6.25 mg/kg): still very active
O[C@H](c1ccccc1)[C@H]1CCCN1Cc1ccccc1 (relative stereo) [Example 3, α-phenyl-2-(1-benzyl-pyrrolidine) methanol (threo isomer)]		270 mg/kg	
CN1CCC[C@@H]1[C@H](O)c1ccccc1 (relative stereo) [Example 4, α-phenyl-2-(1-methyl-pyrrolidine)methanol (threo isomer)]		800 mg/kg	
OCCN1CCC[C@@H]1[C@H](O)c1ccccc1 (relative stereo) [Example 5, α-phenyl-2-(1-β-hydroxyethyl-pyrrolidine)methanol(threo isomer)]		675 mg/kg	inhibition at 100 mg/kg (serum triglycerides; [4]): 45%
O[C@H](c1ccc(Cl)cc1)[C@@H]1CCCN1 (relative stereo) [Example 6, α-(4-chloro-phenyl)-2-pyrrolidine methanol (erythro isomer)]	18 mg/kg	675 mg/kg	
O[C@H](c1ccc(Cl)cc1)[C@H]1CCCN1 (relative stereo) [Example 7, α-(4-chloro-phenyl)-2-pyrrolidine methanol (threo isomer)]	> 50 mg/kg	400 mg/kg	inhibition at 100 mg/kg (serum triglycerides; [4]): 41%
O[C@H](c1ccc(C2CCCCC2)cc1)[C@@H]1CCCN1 (relative stereo) [Example 8, α-(4-cyclohexyl-phenyl)-2-pyrrolidine methanol (erythro isomer)]		> 900 mg/kg	
CC(C)(C)c1ccc([C@@H](O)[C@@H]2CCCN2)cc1 (relative stereo) [Example 10, α-(4-tertiobutyl-phenyl)-2-pyrrolidine methanol (erythro isomer)]		600 mg/kg	
O=C(O)c1cccnc1 [Nictotinic acid, nicotinic acid, reference compound]			inhibition at 100 mg/kg (serum triglycerides; [3]): 50%
